According to ChEMBL document CHEMBL3877277, “Design, synthesis and biological evaluation of new phthalimide and saccharin derivatives with alicyclic amines targeting cholinesterases, beta-secretase and amyloid beta aggregation” (Eur J Med Chem, 2017):
Active and inactive are the calls of the source. The calls are words filed in the database; no cut-off is given here.

Experiments:
[1] = biological target: Acetylcholinesterase (Electrophorus electricus) (UniProt O42275); assay: Inhibition of Electric eel AChE at 10 uM using acetylthiocholine iodide as substrate preincubated for 5 mins followed by substrate addition measured after 5 mins by Ellman's method relative to control
[2] = biological target: Cholinesterase (Equus caballus) (UniProt P81908); assay: Inhibition of equine serum BuChE at 10 uM using butyrylthiocholine iodide as substrate preincubated for 5 mins followed by substrate addition measured after 5 mins by Ellman's method relative to control
[3] = biological target: Acetylcholinesterase (Electrophorus electricus, UniProt O42275)
Description: Inhibition of Electric eel AChE using acetylthiocholine iodide as substrate preincubated for 5 mins followed by substrate addition measured after 5 mins by Ellman's method

[4] = in vitro; conditions: PAMPA
[5] = biological target: T1, Acetylcholinesterase (Homo sapiens, UniProt P22303); assay: Inhibition of recombinant human AChE using acetylthiocholine as substrate by Ellman's method
[6] = biological target: T1, Acetylcholinesterase; assay: Inhibition of recombinant human AChE using acetylthiocholine iodide as substrate preincubated for 5 mins followed by substrate addition measured after 5 mins by Ellman's method
[7] = biological target: Amyloid-beta precursor protein (Homo sapiens) (UniProt P05067); assay: Inhibition of recombinant human HFIP-pretreated amyloid beta (1 to 42) self-induced aggregation at 10 uM after 24 hrs by thioflavin T-based fluorometric assay relative to control
[8] = PAMPA, 6 h, 100 µM
[9] = biological target: Acetylcholinesterase (Electrophorus electricus) (UniProt O42275); assay: Non-competitive inhibition of Electric eel AChE at 0.75 to 3.5 uM using varying levels of acetylthiocholine iodide as substrate preincubated for 5 mins followed by substrate addition measured after 5 mins by Lineweaver-Burk plot analysis
[10] = biological target: Acetylcholinesterase (Electrophorus electricus) (UniProt O42275); assay: Non-competitive inhibition of Electric eel AChE at 0.75 to 3.5 uM using varying levels of acetylthiocholine iodide as substrate preincubated for 5 mins followed by substrate addition measured after 5 mins by Cornish-Bowden plot analysis

Chain of Acetylcholinesterase (Electrophorus electricus) (O42275 24-633 limits assumed): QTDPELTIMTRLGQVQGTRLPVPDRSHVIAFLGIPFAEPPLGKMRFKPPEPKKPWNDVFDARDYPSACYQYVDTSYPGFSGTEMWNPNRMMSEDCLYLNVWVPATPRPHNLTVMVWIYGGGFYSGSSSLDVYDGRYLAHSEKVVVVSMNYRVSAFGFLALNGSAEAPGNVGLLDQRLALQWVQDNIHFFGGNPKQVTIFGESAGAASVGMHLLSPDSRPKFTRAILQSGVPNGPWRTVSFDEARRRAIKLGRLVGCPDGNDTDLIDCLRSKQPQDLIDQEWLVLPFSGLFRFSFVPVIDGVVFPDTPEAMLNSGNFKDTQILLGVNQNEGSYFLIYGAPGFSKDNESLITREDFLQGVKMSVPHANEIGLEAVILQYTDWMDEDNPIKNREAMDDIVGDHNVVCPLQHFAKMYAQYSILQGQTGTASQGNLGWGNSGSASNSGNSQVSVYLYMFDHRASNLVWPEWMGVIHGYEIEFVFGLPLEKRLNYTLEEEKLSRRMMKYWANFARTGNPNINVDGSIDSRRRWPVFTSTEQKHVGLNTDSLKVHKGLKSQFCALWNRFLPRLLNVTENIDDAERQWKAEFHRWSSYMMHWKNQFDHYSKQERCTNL
Chain of Acetylcholinesterase (Electrophorus electricus, UniProt O42275) (O42275 whole entry): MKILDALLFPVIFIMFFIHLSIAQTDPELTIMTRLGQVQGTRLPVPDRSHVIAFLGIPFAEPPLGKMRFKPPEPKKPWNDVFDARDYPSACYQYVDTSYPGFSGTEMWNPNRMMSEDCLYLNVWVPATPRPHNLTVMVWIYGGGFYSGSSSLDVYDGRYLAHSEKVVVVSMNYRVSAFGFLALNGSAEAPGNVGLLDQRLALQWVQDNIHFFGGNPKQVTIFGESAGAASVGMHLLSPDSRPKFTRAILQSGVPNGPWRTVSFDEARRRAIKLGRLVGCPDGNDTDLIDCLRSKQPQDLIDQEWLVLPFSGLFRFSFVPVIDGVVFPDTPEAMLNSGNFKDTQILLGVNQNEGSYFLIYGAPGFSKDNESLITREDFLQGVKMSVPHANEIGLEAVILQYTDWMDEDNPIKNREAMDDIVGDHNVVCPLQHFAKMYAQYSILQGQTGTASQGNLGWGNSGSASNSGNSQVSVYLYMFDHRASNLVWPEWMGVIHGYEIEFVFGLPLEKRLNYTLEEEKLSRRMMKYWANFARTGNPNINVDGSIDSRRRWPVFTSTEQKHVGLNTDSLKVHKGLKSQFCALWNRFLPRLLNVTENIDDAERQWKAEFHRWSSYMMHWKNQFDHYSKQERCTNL
Chain of Cholinesterase (Equus caballus) (P81908 whole entry): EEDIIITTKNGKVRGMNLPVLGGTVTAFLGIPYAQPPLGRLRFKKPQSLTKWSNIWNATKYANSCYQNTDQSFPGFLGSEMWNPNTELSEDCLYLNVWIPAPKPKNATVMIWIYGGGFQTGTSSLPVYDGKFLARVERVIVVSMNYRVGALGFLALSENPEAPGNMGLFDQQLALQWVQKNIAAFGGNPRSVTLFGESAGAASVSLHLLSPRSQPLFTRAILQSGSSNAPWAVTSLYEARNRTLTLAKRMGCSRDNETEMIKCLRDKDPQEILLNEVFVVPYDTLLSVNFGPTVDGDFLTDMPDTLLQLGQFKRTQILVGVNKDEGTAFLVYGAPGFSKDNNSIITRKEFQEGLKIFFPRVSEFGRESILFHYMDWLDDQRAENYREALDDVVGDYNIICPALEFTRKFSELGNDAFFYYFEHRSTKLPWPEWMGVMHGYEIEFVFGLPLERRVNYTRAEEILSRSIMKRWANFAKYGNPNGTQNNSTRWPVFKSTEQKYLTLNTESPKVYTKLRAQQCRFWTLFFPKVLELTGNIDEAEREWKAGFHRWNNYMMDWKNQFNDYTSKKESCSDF
T1 sequence (P22303 whole entry): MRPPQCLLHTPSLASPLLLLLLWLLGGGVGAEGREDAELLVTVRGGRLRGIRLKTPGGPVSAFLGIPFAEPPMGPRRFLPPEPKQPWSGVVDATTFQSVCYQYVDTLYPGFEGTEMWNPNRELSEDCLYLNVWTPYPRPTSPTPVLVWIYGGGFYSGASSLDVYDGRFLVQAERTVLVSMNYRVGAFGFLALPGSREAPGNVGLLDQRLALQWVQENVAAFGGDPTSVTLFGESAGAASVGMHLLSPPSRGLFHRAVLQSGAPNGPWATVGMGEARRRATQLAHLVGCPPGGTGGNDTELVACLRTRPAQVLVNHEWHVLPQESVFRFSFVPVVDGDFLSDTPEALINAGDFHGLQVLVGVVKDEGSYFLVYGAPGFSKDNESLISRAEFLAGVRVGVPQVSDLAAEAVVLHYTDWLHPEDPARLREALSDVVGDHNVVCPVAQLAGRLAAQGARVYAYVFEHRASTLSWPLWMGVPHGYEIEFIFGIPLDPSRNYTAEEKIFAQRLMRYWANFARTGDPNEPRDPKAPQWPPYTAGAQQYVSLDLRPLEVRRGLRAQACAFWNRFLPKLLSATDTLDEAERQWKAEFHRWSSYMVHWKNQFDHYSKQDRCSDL
Chain of Amyloid-beta precursor protein (Homo sapiens) (P05067 whole entry): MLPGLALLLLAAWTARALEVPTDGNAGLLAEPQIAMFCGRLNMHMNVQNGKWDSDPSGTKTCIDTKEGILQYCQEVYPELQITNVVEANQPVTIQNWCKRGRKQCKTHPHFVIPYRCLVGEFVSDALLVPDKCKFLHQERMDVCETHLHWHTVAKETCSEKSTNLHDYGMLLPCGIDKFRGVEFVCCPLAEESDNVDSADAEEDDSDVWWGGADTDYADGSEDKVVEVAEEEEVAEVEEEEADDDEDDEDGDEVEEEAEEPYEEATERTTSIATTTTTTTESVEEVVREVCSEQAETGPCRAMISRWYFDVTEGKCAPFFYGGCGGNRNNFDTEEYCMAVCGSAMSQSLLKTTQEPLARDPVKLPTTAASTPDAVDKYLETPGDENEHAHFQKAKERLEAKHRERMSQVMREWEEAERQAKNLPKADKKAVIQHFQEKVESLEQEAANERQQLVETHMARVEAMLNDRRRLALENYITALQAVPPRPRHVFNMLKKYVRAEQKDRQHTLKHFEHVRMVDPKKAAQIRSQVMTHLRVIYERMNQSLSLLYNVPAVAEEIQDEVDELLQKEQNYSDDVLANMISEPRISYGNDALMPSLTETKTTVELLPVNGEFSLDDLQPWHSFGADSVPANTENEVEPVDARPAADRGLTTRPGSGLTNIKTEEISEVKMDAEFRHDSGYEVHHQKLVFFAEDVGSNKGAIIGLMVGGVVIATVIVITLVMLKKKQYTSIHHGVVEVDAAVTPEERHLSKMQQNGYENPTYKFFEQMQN

SMILES | inhibition [1] | inhibition [2] | IC50 [3] | also measured
O=C1c2ccccc2S(=O)(=O)N1CCN1CCCN(Cc2ccccc2F)C1 | 18.4% | 21.6% |  | 
O=C1c2ccccc2C(=O)N1CCN1CCCN(Cc2cc(F)cc(F)c2)C1 | < 10% | < 10% |  | 
O=C1c2ccccc2S(=O)(=O)N1CCCCN1CCN(Cc2ccccc2F)CC1 | > 50% | 29.6% | 4.25 µM | Papp at 6 h, 100 µM [4]: 11 ×10⁻⁶ cm/s
O=C1c2ccccc2S(=O)(=O)N1CCCCN1CCN(Cc2ccccc2)CC1 | > 50% | 41.5% | 3.01 µM | Papp at 6 h, 100 µM [4]: 10.6 ×10⁻⁶ cm/s
O=C1c2ccccc2S(=O)(=O)N1CCN1CCCC(NCc2cc(F)cc(F)c2)C1 (stereo unspecified) | < 10% | < 10% |  | 
CCN(Cc1ccccc1)Cc1ccc(-c2cc3cc(OCCNC(=O)/C=C/c4cc(F)cc(F)c4)ccc3oc2=O)cc1 |  |  |  | IC50 [5]: 0.00716 µM
O=C1c2ccccc2S(=O)(=O)N1CCN1CCN(CCc2ccccc2)CC1 | < 10% | 18.4% |  | 
O=C1c2ccccc2S(=O)(=O)N1CCN1CCCN(Cc2cc(F)cc(F)c2)C1 | 25.4% | 16.4% |  | 
O=C1c2ccccc2C(=O)N1CCN1CCN(CCc2ccccc2F)CC1 | < 10% | 20.3% |  | 
O=C1c2ccccc2S(=O)(=O)N1CCCN1CCN(Cc2ccccc2)CC1 | 34.2% | 11.7% |  | 
O=C1c2ccccc2S(=O)(=O)N1CCN1CCN(Cc2cccc(F)c2)CC1 | > 50% | < 10% | 2.14 µM | 
O=C1c2ccccc2S(=O)(=O)N1CCCCCN1CCN(Cc2ccccc2F)CC1 | > 50% | 21.9% | 7.36 µM | Papp at 6 h, 100 µM [4]: 9.6 ×10⁻⁶ cm/s
O=C1c2ccccc2C(=O)N1CCN1CCCC(NCc2ccccc2F)C1 (stereo unspecified) | 15.3% | < 10% |  | 
O=C1c2ccccc2C(=O)N1CCN1CCN(Cc2cc(F)cc(F)c2)CC1 | < 10% | 14.2% |  | 
O=C1c2ccccc2S(=O)(=O)N1CCCCCCN1CCN(Cc2ccccc2F)CC1 | > 50% | 31.6% | 8.43 µM | 
O=C1c2ccccc2S(=O)(=O)N1CCCCCCN1CCN(Cc2ccccc2)CC1 | 41.7% | 41.8% |  | 
O=C1c2ccccc2S(=O)(=O)N1CCN1CCN(Cc2cc(F)cc(F)c2)CC1 | > 50% | 11% | 19.2 µM | 

SMILES | inhibition [1] | inhibition [2] | IC50 [3] | also measured
O=C1c2ccccc2C(=O)N1CCNC1CCN(Cc2ccccc2)C1 (stereo unspecified) | 25.7% | 21.4% |  | 
O=C1c2ccccc2S(=O)(=O)N1CCCCCNCc1ccccc1 |  |  |  | IC50 [6]: 0.033 µM; inhibition [7]: 22.2%
O=C1c2ccccc2S(=O)(=O)N1CCN1CCCC(NCc2ccccc2F)C1 (stereo unspecified) | < 10% | < 10% |  | 
O=C1c2ccccc2C(=O)N1CCNC1CCCN(Cc2ccccc2)C1 (stereo unspecified) | < 10% | 16% |  | 
O=C1c2ccccc2S(=O)(=O)N1CCN1CCN(Cc2ccccc2F)CC1 | > 50% | 16.1% | 17.8 µM | 
O=C1c2ccccc2S(=O)(=O)N1CCCCCN1CCN(Cc2ccccc2)CC1 | 43.1% | 30.4% |  | 
CCN(C)C(=O)Oc1cccc([C@H](C)N(C)C)c1 [RIVASTIGMINE] |  |  |  | permeability [8]: 6.6 ×10⁻⁶ cm/s
O=C1c2ccccc2S(=O)(=O)N1CCCN1CCN(Cc2ccccc2F)CC1 | < 10% | 12% |  | 
O=C1c2ccccc2C(=O)N1CCN1CCCN(Cc2ccccc2F)C1 | < 10% | 27.8% |  | 
O=C1c2ccccc2C(=O)N1CCNC1CCCN(Cc2ccccc2F)C1 (stereo unspecified) | 18.9% | 28.3% |  | 
O=C1c2ccccc2S(=O)(=O)N1CCN1CCN(Cc2ccccc2)CC1 | > 50% | 22.1% | 0.83 µM | inhibition [9]: Active; inhibition [10]: Active; Papp at 6 h, 100 µM [4]: 3.75 ×10⁻⁶ cm/s
O=C1c2ccccc2C(=O)N1CCNC1CCCN(Cc2cc(F)cc(F)c2)C1 (stereo unspecified) | < 10% | 14.2% |  | 
O=C1c2ccccc2C(=O)N1CCN1CCCC(NCc2cc(F)cc(F)c2)C1 (stereo unspecified) | > 50% | 20% | 6.47 µM | 
O=C1c2ccccc2C(=O)N1CCN1CCN(Cc2ccccc2F)CC1 | 41.8% | < 10% |  | 
O=C1c2ccccc2S(=O)(=O)N1CCN1CCN(Cc2ccc(F)cc2)CC1 | > 50% | 47.5% | 6.28 µM | Papp at 6 h, 100 µM [4]: 3.65 ×10⁻⁶ cm/s
O=C1c2ccccc2S(=O)(=O)N1CCN1CCN(CCc2ccccc2F)CC1 | < 10% | 11.3% |  | 
